“Also recorded” adds a separate entry of the source.
Columns and labels:
Bifidobacterium species = experiment: Probiotic growth curves; type: cell-based; settings: B. longum BG3, B. animalis Bo, BB-12, BLC, B. breve; HdKTLR 262, HdKNL 262, HdVLPN 204, HdLPN 227 µg/mL; MRS broth, 24 h, 37 °C, OD 650 nm
Experimental: The effect of the peptides on probiotics was evaluated using the following probiotic Lactobacillus and Bifidobacterium species: L. acidophilus Ki (LAS), L. acidophilus La5, L. casei L26, L. plantarum 299V, L. rhamnosus RII, B. longum BG3 B. animalis spp. lactis BB12, B. animalis BLC, and B. animalis Bo. All the assays were performed using MRS broth supplemented with 0.5 g/L of L-cysteine. The peptides were combined with a 1/10 ratio of inoculum, containing 2% (v/v) of the probiotic and cultured for […] in MRS broth. For the positive control, deionized water was used instead of the peptides, with a 2% inoculum, while deionized water with MRS served as the negative control. Peptide wells with Bifidobacterium were sealed with paraffin to assure anaerobiosis conditions. The bacterial growth was monitored at 650 nm for 24 h at 37 °C in a microplate reader (Multiskan GO, Thermo Scientific, Finland), and the optical density (OD) was measured hourly. Growth curves were created by transforming the absorbance values in natural logarithms ln (Abs).

[1] = ABTS radical scavenging assay; settings: for Effect of pH and ionic strength on ABTS antioxidant activity: ABTS radical solution in HPSEC buffers, 344 and 700 mM, pH 3.0, 5.0, 7.0; for ABTS radical scavenging value: SD
Experimental: ABTS radical activity is based on an antioxidant’s capacity to scavenge the ABTS’s oxidized state. For this, ABTS radical scavenging activity was performed in a 96-well microplate, following the method described by. The absorbance was measured with a multidetection plate reader (Synergy H1, Winooski, VT, USA). For each sample, the standard and control analyses were duplicated. All measurements were performed in duplicate. The results are expressed in µmol of Trolox equivalents/µmol of peptide. To test the antioxidant activity under different pH and ionic strength conditions, the ABTS radical solution was prepared using the same buffers employed in the HPSEC analysis.

[2] = High-performance size exclusion chromatography (HPSEC): molecular size and aggregation; type: physicochemical; settings: for Aggregation behaviour in HPSEC: Agilent AdvanceBio SEC 130 Å, isocratic, buffers 344 mM or 700 mM at pH 3.0, 5.0, 7.0, PDA detection
Experimental: The HPSEC column was eluted with 344 mM of a phosphate buffer at pH 7.0, replicating the conditions used to analyze the mucus peptide fraction in our previous article. During the analysis, we observed the formation of peptide aggregates, specifically oligomers, including dimers, trimers, and tetramers. Various buffer conditions were tested to determine if a particular pH and ionic strength would enable the peptides to expose their theoretical molecular weights, as specified in the GenScript technical datasheet. Since seawater typically has an ionic strength of approximately 700 mM [10], buffers with this ionic strength were tested at pH 3.0, 5.0, and 7.0, as well as at 344 mM of ionic strength.
The peptides’ molecular size validation was determined using high-performance size exclusion chromatography (HPSEC). An Agilent AdvanceBio SEC column (Agilent Technologies, London, UK), 2.7 µm in particle size, 130 Å in pore size, and 7.8 in inner diameter × 300 mm in length, was used. The column was eluted isocratically using various buffers with different pH and ionic strengths, namely, 344 mM at pH 7 (0.15 M of a phosphate buffer with NaH2PO4), 700 mM at pH 7 (0.15 M of a phosphate buffer with NaH2PO4 and NaCl), 344 mM at pH 5 (0. 15 M of an acetate buffer with acetic acid and NaCl), 700 mM at pH 5 (0.15 M of an acetate buffer with acetic acid and NaCl), 344 mM at pH 3 (0.05 M of a formate buffer with fomic acid and NaCl), and 700 mM at pH 3 (0.05 M of a formate buffer with formic acid and NaCl) at a flow rate of 1 mL/min. The sample injection volume was 10 µL. The instrument used was Waters 2690 with a photodiode array detector (PDA 190–600 nm). The software Empower 3 was used for data collection. To determine the molecular weights of the resulting chromatogram peaks, a calibration curve was made with the following protein standards: Ovalbumin (44,300 Da), Myoglobin (17,600 Da), Cytochrome C (12,327 Da), Aprotinin (6511 Da), Neurotensin (1672 Da), Angiotensin-II (1040 Da), Tyr-Phe dipeptide (328.4 Da), and L-tryptophan (204 Da).

S. enterica biofilm = experiment: Antibiofilm activity (crystal violet); type: cell-based, Salmonella enterica; settings: 24 h incubation, HdKTLR 262, HdKNL 262, HdPPP 130, HdVLPN 204, HdLPN 227 µg/mL, OD 595 nm
Experimental: The antibiofilm activity was determined according to the following method, with some modifications. Taking the microplate from 24 h inhibition growth curves, the contents of the plate were discarded, and each well was carefully washed three times with distilled water to remove non-adherent cells. The adhered cells were fixed with 150 µL of methanol for 10 min. Then, the methanol was discarded, the plates were left to dry, and then, the fixed biofilm was stained with […] of crystal violet (CV) for 10 min. Excess stain was rinsed out by placing the plate under slow-running tap water. Once the plates were air-dried, the dye attached to the adherent cells was resolubilized by adding 150 µL of 33% (v/v) glacial acetic acid and agitated for 15 min. The optical density of the solution obtained was measured at 595 nm using a multidetection plate reader (Synergy H1, Winooski, VT, USA). All tests were carried out in duplicate, with a positive control using an inoculated culture in MH broth and a negative control using MH broth only. The results are presented as the percentage of biofilm formation, calculated according to the following formula, where the OD of the sample is the measured OD of the inoculated medium mixed with the peptides, and the OD of the positive control is the OD measured for the positive control.% Biofilm formation = (ODsample/ODpositive control) × 100(1)

[3] = pH 3 and 344 mM ionic strength, means (n ≥ 3) ± SD
[4] = pH 7.0 and 700 mM ionic strength, means (n ≥ 3) ± SD

Row | Sequence | Effect on probiotic growth (Bifidobacterium species) | Effect of pH and ionic strength on ABTS antioxidant activity [1] | ABTS ([1]; peptide in H2O (HdPPP in DMSO), means (n ≥ 3) ± SD, nd: not detected) | Aggregation behaviour in HPSEC [2] | Biofilm formation versus control (S. enterica biofilm) | Molecular weight observed by HPSEC (aggregate) ([2]; buffers with ionic strengths of 344 mM and 700 mM at pH 7.0 and pH 5.0, theoretical molecular weight 1588.4 Da) | ABTS radical scavenging value [1, 3] | ABTS radical scavenging value [1, 4]
1 | DPPNPKNL [HdKNL] | did not inhibit the growth | remained unaffected by a decrease in pH | no antioxidant activity was observed | aggregate formation increased at higher pH conditions; also recorded: aggregation was still observed | no significant differences |  |  | 
2 | EDNSELGQETPTLR [HdKTLR] | did not inhibit the growth | no observable antioxidant activity |  | formation of aggregates into oligomers; also recorded: pronounced aggregation | no significant differences | approximately 7836 Da |  | 
3 | PFPGPLPN [HdLPN] | did not inhibit the growth | significant decrease in antioxidant activity |  | forming only dimers; also recorded: aggregation was still observed | no significant differences |  | 0.012 ± 0.004 µmol TE/µmol of peptide | 0.283 ± 0.177 µmol TE/µmol of peptide
4 | VYPFPGPLPN [HdVLPN] | did not inhibit the growth | significant decrease in antioxidant activity |  | degree of polymerization was less prominent than in the other peptides; also recorded: aggregation was still observed | no significant differences |  | 0.163 ± 0.002 µmol TE/µmol of peptide | 0.827 ± 0.021 µmol TE/µmol of peptide
